From PMC11239005, “Preclinical studies of RA475, a guanidine-substituted spirocyclic candidate RPN13/ADRM1 inhibitor for treatment of ovarian cancer” (PLOS ONE, 2024)

Tests used:
[1] = design: method as in PMID 37315065; conditions: mice; cited from earlier work
[2] = Stability in human plasma; assay type: in vitro ADME; conditions: 10 μM, 1 h at 37°C
Method: (§1) Human and mouse liver microsomes and NADPH regenerating system solutions were purchased from Corning Life Sciences (Tewsbury, MA). Human and mouse K2EDTA-treated plasma was purchased from BioIVT (Westbury, NY). Metabolic studies in liver microsomes (0.125 mg/mL) were conducted in 1x PBS (pH 7.4), NADPH-generating system, and 10 μM RA475 in a final volume of 250 μL. An incubation mixture with or without NADPH-generating system, as well as a neat solution prepared without microsomes and NADPH-generating system was used. RA475 was added at the same concentration level into human and mouse EDTA plasma. All reactions were initiated with the addition of RA475. Incubations were performed in glass tubes maintained at 37°C in a shaker bath. At 0, 30, and 60 min, 10 μL samples were withdrawn from the reaction mixture, and 0.5 mL of acetonitrile containing internal standard was added to each. Samples were vortex-mixed and subjected to centrifugation for 5 min at 1430 x g. A 10 μL aliquot of the supernatant was injected onto the LC-MS/MS instrument for qualitative analysis using a temperature-controlled autosampling device operating at 5°C (See Pharmacokinetic section).

[3] = tested on: MDA-MB-468 cells; experiment: Surface Annexin V display by flow cytometry, MDA-MB-468; assay type: cell-based; conditions: MDA-MB-468, 12 h; RA475 1 or 2 μM, ixazomib 1 μM
Method: The percentage of cells initiating apoptosis was assessed with the annexin V FITC assay kit. The cells (2 × 10^5 cells/well) were treated with the described compounds at selected concentrations for 12 h or 16 h, as indicated. The cells were then collected, washed with PBS, resuspended in 100 μL of annexin V-FITC and 7-AAD dual-stain solution (3 μL Annexin V and 3 μL 7AAD, Catalog Number; 559763-BD bioscience), and incubated 20 min in the dark. The samples were then analyzed via flow cytometry using FlowJo V10 software. All experiments were repeated three times.
Supplementary file pone.0305710.s006.tif: S6 Fig RA475 induced apoptosis in a triple negative breast cancer cell line. […] (TIF)

[4] = Stability in murine plasma; assay type: in vitro ADME, mouse; conditions: 10 μM, 1 h at 37°C
Method: as §1

[5] = target: human serum albumin protein (Homo sapiens, UniProt P02768); experiment: Human serum albumin protein binding; assay type: in vitro ADME; conditions: 1 μM, dialysis 5 h
human serum albumin protein, sequence (P02768 25-609): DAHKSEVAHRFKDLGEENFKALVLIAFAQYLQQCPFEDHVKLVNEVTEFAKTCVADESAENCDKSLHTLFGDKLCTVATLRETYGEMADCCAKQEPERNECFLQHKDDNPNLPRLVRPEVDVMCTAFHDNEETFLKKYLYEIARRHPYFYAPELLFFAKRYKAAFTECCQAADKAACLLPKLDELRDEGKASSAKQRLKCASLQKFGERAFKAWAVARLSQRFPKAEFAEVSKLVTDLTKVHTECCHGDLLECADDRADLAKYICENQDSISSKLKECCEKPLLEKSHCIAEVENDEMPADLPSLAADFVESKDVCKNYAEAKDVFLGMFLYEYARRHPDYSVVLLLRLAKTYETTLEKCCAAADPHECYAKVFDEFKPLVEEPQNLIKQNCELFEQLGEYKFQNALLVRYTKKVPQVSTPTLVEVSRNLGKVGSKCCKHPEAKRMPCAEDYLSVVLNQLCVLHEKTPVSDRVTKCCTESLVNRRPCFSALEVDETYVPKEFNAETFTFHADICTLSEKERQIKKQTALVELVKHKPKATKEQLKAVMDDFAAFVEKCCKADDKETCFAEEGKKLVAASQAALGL
Method: The assay was performed in a multiple-use 96-well dialysis unit (HTD96b dialyzer). Each individual well unit consisted of 2 chambers separated by a vertically aligned dialysis membrane of predetermined pore size (MWCO 12–14 kDa). 120 μL of non-diluted plasma spiked with the compound (1 μM, final DMSO concentration 1%) was added to one chamber, and the same volume of PBS buffer pH 7.4 to the other chamber. The HTD96b dialyzer was covered with adhesive sealing film and incubated 5 h at 37°C while shaking at 100 rpm. For sample preparation, an aliquot of the contents of each chamber was mixed with the same volume of the blank opposite matrix. In order to define non-specific loss of the compound during this assay, a standard solution was created by mixing an aliquot of spiked plasma with blank buffer without dialysis. Two aliquots of the standard solution were incubated at 37°C, shaking at 100 rpm for 5 h (recovery samples). The other two aliquots were immediately diluted with acetonitrile and stored at 4°C until analysis (stability samples). All samples were diluted 5-fold with internal standard diluted in 100% methanol with subsequent plasma proteins sedimentation by centrifuging at 6000 rpm for 5 minutes. Supernatants were analyzed using LC-MS/MS. The percentage of plasma protein bound compound, recovery and stability were calculated using following equations. […]

[6] = tested on: CD-1 mice; experiment: Single increasing dose tolerability in CD-1 mice, IP; assay type: in vivo, mouse; conditions: CD-1 mice, single IP doses at or below 80 mg/Kg
Method: (§2) RA475 in 25% β-hydroxy propyl cyclodextrin in water was administered at increasing single doses to CD-1 mice (n = 3/group) via intraperitoneal injection.

[7] = as above; assay type: in vivo, mouse; conditions: CD-1, mouse, in vivo; mice, single dose, IP
Method: as §2

SMILES	IP bioavailability [1] [%]	oral bioavailability [1] [%]	stability in plasma [2]	apoptosis by surface Annexin V display [3]	stability in plasma [4]	binding to human serum albumin protein [5] [%]	adverse events, including weight loss [6]	NOAEL [7] [mg/kg]
N#Cc1ccc(/C=C2/C(=O)/C(=C/c3ccc(C#N)cc3)C23CCNCC3)cc1 [Up284, reference compound]	87	23						
Cl.Cl.N#Cc1ccc(/C=C2/C(=O)/C(=C/c3ccc(C#N)cc3)C23CCN(C(=N)N)CC3)cc1 [RA475, 1,3-bis((E)-4-cyanobenzylidene)-2-oxo-7-azaspiro[3.5]nonane-7-carboximidamide dihydrochloride]			did not degrade	initiated apoptosis	did not degrade	93.8	No evidence of adverse events	> 80
